Key:
[1] = target: T1, human-type PPAR α ligand-binding domain (Homo sapiens, UniProt Q07869); test: Competition binding with [3H]KRP-297 to 6×His-hPPARα ligand-binding domain; details: for Binding to the ligand-binding domain of PPARα: competition with 100 nM [3H]KRP-297, test concentration not given; for Binding to PPAR α ligand-binding domain, in words: competition with [3H]KRP-297
T1 construct: made in house; host or cells: Escherichia coli
T1 sequence (Q07869 239-466 limits assumed): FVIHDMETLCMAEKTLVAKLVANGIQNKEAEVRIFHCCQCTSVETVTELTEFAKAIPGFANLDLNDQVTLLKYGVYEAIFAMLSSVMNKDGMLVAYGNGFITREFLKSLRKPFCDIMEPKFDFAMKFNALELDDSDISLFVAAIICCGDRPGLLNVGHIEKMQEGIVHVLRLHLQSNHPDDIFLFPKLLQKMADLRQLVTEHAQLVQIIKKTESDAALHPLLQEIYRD
Source text: (§1) Proteins (6×His-hPPARs LBD) tagged 6-copy histidine to the side of N-termini in the ligand-binding domains of human-type PPAR α and PPAR γ were expressed in Escherichia coli, respectively, and purified through a nickel column.

[2] = target: T2, human-type PPAR γ ligand-binding domain (Homo sapiens, UniProt P37231); test: Competition binding with [3H]KRP-297 to 6×His-hPPARγ ligand-binding domain; details: for Binding to the ligand-binding domain of PPARγ: competition with 100 nM [3H]KRP-297, test concentration not given; for Binding to PPAR γ ligand-binding domain, in words: competition with [3H]KRP-297
T2 construct: made in house; host or cells: Escherichia coli
T2 sequence (P37231 238-503 limits assumed): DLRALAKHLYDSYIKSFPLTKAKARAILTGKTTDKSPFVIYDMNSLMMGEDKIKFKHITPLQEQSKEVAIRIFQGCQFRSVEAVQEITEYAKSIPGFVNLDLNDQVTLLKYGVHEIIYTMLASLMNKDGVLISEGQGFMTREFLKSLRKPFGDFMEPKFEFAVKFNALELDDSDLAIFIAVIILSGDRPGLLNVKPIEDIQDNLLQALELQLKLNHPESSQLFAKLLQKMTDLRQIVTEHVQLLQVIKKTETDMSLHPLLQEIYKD
Source text: as §1

[3] = target: T3, Human PPARγ ligand-binding domain and SRC-1 (Homo sapiens, UniProt P37231); test: Conjugate formation between PPARγ LBD and [35S]SRC-1; type: biochemical
T3 construct: made in house; host or cells: Escherichia coli (PPAR LBD); in vitro translation, TNT, Promega (SRC-1)
T3 sequence (P37231 238-503 limits assumed): T2 sequence (P37231 238-503 limits assumed)
Procedure: (§2) [35S]methionine-labeled form of SRC-1 containing 2-copy of LXXLL motif was prepared in vitro (TNTR, Promega Co., Madison, Wis.). 6×His-hPPARs LBD protein was incubated for 60 minutes at 4° C. in 50 mM Tris-HCl buffer (pH 7.4) containing 50 mM KCl and 1 mM dithiothreitol and 0.1% bovine serum albumin in the presence or absence of testing compound. Thereafter, […] of anti-6×His antibody (QIAGEN Co., Germany) were added and the mixture was incubated for 60 minutes at 4° C. Successively, […] of protein G Sepharose (Falmasia Biotech Co., Sweden) were added and the mixture was incubated for 60 minutes at 4° C. After washed thrice by centrifugation, protein G Sepharose was dissolved with […] of SDS-sample buffer, 20% SDS-PAGE, and then [35S]SRC-1 was detected by means of autography.

[4] = target: T4, Human PPARα ligand-binding domain and SRC-1 (Homo sapiens, UniProt Q07869); test: Conjugate formation between PPARα LBD and [35S]SRC-1; type: biochemical
T4 construct: made in house; host or cells: Escherichia coli (PPAR LBD); in vitro translation, TNT, Promega (SRC-1)
T4 sequence (Q07869 239-466 limits assumed): T1 sequence (Q07869 239-466 limits assumed)
Procedure: as §2

Structure (SMILES): CCCCCCCC/C=C\CCCCCCCC(=O)SCCNC(=O)CCNC(=O)[C@H](O)C(C)(C)COP(=O)(O)OP(=O)(O)OC[C@H]1O[C@@H](n2cnc3c(N)ncnc32)[C@H](O)[C@@H]1OP(=O)(O)O [Oleoyl CoA]
- Binding to the ligand-binding domain of PPARα [1]: 95%
- Binding to PPAR α ligand-binding domain, in words [1]: ligand
- Binding to the ligand-binding domain of PPARγ [2]: 52%
- Binding to PPAR γ ligand-binding domain, in words [2]: ligand

Structure (SMILES): CCCCC/C=C\C/C=C\CCCCCCCC(=O)SCCNC(=O)CCNC(=O)[C@H](O)C(C)(C)COP(=O)(O)OP(=O)(O)OC[C@H]1O[C@@H](n2cnc3c(N)ncnc32)[C@H](O)[C@@H]1OP(=O)(O)O [Linoleoyl CoA]
- Conjugate formation between PPARγ LBD and SRC-1 ([3]; BRL-49653 30 μM, Linoleoyl CoA 3 μM (0 μM: 4.8 ± 0.7)): 4.9 ± 0.6
- Conjugate formation between PPARγ LBD and SRC-1 ([3]; BRL-49653 30 μM, Linoleoyl CoA 10 μM (0 μM: 4.8 ± 0.7)): 4.8 ± 1.9
- Conjugate formation between PPARγ LBD and SRC-1 ([3]; BRL-49653 30 μM, Linoleoyl CoA 30 μM (0 μM: 4.8 ± 0.7)): 1.5 ± 0.5
- Conjugate formation between PPARγ LBD and SRC-1 ([3]; BRL-49653 30 μM, Linoleoyl CoA 100 μM (0 μM: 4.8 ± 0.7)): 1.0 ± 0.1
- Inhibition of conjugate formation of SRC-1 with PPAR γ, in words ([3]; conjugate formation due to ligands BRL-49,653 and linoleic acid): dose-dependently inhibited
- Conjugate formation between PPARγ LBD and SRC-1 ([3]; linoleic acid 30 μM, Linoleoyl CoA 3 μM (0 μM: 4.5 ± 0.7)): 4.2 ± 0.3
- Conjugate formation between PPARγ LBD and SRC-1 ([3]; linoleic acid 30 μM, Linoleoyl CoA 10 μM (0 μM: 4.5 ± 0.7)): 2.7 ± 1.1
- Conjugate formation between PPARγ LBD and SRC-1 ([3]; linoleic acid 30 μM, Linoleoyl CoA 30 μM (0 μM: 4.5 ± 0.7)): 1.9 ± 0.8
- Conjugate formation between PPARγ LBD and SRC-1 ([3]; linoleic acid 30 μM, Linoleoyl CoA 100 μM (0 μM: 4.5 ± 0.7)): 1.3 ± 0.4
- Binding to the ligand-binding domain of PPARα [1]: 92%
- Binding to PPAR α ligand-binding domain, in words [1]: ligand
- Binding to the ligand-binding domain of PPARγ [2]: 59%
- Binding to PPAR γ ligand-binding domain, in words [2]: ligand
- Conjugate formation between PPARα LBD and SRC-1 ([4]; KRP-297 30 μM, Linoleoyl CoA 3 μM (0 μM: 6.1 ± 1.7)): 5.5 ± 1.5
- Conjugate formation between PPARα LBD and SRC-1 ([4]; KRP-297 30 μM, Linoleoyl CoA 10 μM (0 μM: 6.1 ± 1.7)): 4.4 ± 0.8
- Conjugate formation between PPARα LBD and SRC-1 ([4]; KRP-297 30 μM, Linoleoyl CoA 30 μM (0 μM: 6.1 ± 1.7)): 1.4 ± 0.1
- Conjugate formation between PPARα LBD and SRC-1 ([4]; KRP-297 30 μM, Linoleoyl CoA 100 μM (0 μM: 6.1 ± 1.7)): 0.9 ± 0.3
- Inhibition of conjugate formation of SRC-1 with PPAR α, in words ([4]; conjugate formation due to ligands KRP-297 and linoleic acid): dose-dependently inhibited
- Conjugate formation between PPARα LBD and SRC-1 ([4]; linoleic acid 30 μM, Linoleoyl CoA 3 μM (0 μM: 5.3 ± 1.9)): 6.1 ± 2.2
- Conjugate formation between PPARα LBD and SRC-1 ([4]; linoleic acid 30 μM, Linoleoyl CoA 10 μM (0 μM: 5.3 ± 1.9)): 2.4 ± 0.8
- Conjugate formation between PPARα LBD and SRC-1 ([4]; linoleic acid 30 μM, Linoleoyl CoA 30 μM (0 μM: 5.3 ± 1.9)): 1.2 ± 0.4
- Conjugate formation between PPARα LBD and SRC-1 ([4]; linoleic acid 30 μM, Linoleoyl CoA 100 μM (0 μM: 5.3 ± 1.9)): 0.9 ± 0.3

Structure (SMILES): CCCCCCCCCCCCCCCC(=O)SCCNC(=O)CCNC(=O)[C@H](O)C(C)(C)COP(=O)(O)OP(=O)(O)OC[C@H]1O[C@@H](n2cnc3c(N)ncnc32)[C@H](O)[C@@H]1OP(=O)(O)O [Palmitoyl CoA]
- Binding to the ligand-binding domain of PPARα [1]: 83%
- Binding to PPAR α ligand-binding domain, in words [1]: ligand
- Binding to the ligand-binding domain of PPARγ [2]: 72%
- Binding to PPAR γ ligand-binding domain, in words [2]: ligand

Structure (SMILES): CCCCCCCCCCCCCCCCCC(=O)SCCNC(=O)CCNC(=O)[C@H](O)C(C)(C)COP(=O)(O)OP(=O)(O)OC[C@H]1O[C@@H](n2cnc3c(N)ncnc32)[C@H](O)[C@@H]1OP(=O)(O)O [Stearoyl CoA]
- Binding to the ligand-binding domain of PPARα [1]: 94%
- Binding to PPAR α ligand-binding domain, in words [1]: ligand
- Binding to the ligand-binding domain of PPARγ [2]: 89%
- Binding to PPAR γ ligand-binding domain, in words [2]: ligand

Structure (SMILES): CCCCCCCCCCCCCC(=O)SCCNC(=O)CCNC(=O)[C@H](O)C(C)(C)COP(=O)(O)OP(=O)(O)OC[C@H]1O[C@@H](n2cnc3c(N)ncnc32)[C@H](O)[C@@H]1OP(=O)(O)O [Myristoyl CoA]
- Binding to the ligand-binding domain of PPARα [1]: 70%
- Binding to PPAR α ligand-binding domain, in words [1]: ligand
- Binding to the ligand-binding domain of PPARγ [2]: 45%
- Binding to PPAR γ ligand-binding domain, in words [2]: ligand

Structure (SMILES): CCCCC/C=C/C=C1/C(=O)C=C[C@@H]1C/C=C\CCCC(=O)O [15-Deoxy-Δ^12,14-prostaglandin J2, 15-deoxy-Δ^12,14-prostaglandin J2, reference compound]
- Binding to the ligand-binding domain of PPARγ [2]: 93%

Structure (SMILES): CCCCC/C=C\C/C=C\C=C\[C@@H](O)C/C=C\CCCC(=O)O [8(S)-Hydroxyeicosatetraenoic acid, 8(S)-hydroxyeicosatetraenoic acid, reference compound]
- Binding to the ligand-binding domain of PPARα [1]: 99%

Structure (SMILES): CCCCC/C=C\C/C=C\C/C=C\C/C=C\CCCC(=O)SCCNC(=O)CCNC(=O)[C@H](O)C(C)(C)COP(=O)(O)OP(=O)(O)OC[C@H]1O[C@@H](n2cnc3c(N)ncnc32)[C@H](O)[C@@H]1OP(=O)(O)O [Arachidonoyl CoA]
- Binding to the ligand-binding domain of PPARα [1]: 54%
- Binding to PPAR α ligand-binding domain, in words [1]: ligand
- Binding to the ligand-binding domain of PPARγ [2]: 46%
- Binding to PPAR γ ligand-binding domain, in words [2]: ligand

Reference: patent US6762171B1, “Fatty acid CoA thioester inhibitory substance of PPARα and PPARγ” (Kyorin Pharmaceutical Co, Ltd., priority 2002, dated 2004)
